In patent publication US7498447B2, “Therapeutic compounds” (Allergan, Inc., priority 2006, dated 2009):

Assays:
EP4 [1] = molecular target: T1, EP4 (Homo sapiens, UniProt P35408); test: EP4 binding (KI)
Excerpt: (§1) U.S. patent application Ser. No. 11/553,143, filed on Oct. 26, 2006, incorporated by reference herein, describes the methods used to obtain the in vitro data in the tables below.

EP2 [2] = molecular target: T2, EP2 (Homo sapiens, UniProt P43116); test: EP2 cAMP; assay type: cell-based
T2 sequence (P43116 whole entry): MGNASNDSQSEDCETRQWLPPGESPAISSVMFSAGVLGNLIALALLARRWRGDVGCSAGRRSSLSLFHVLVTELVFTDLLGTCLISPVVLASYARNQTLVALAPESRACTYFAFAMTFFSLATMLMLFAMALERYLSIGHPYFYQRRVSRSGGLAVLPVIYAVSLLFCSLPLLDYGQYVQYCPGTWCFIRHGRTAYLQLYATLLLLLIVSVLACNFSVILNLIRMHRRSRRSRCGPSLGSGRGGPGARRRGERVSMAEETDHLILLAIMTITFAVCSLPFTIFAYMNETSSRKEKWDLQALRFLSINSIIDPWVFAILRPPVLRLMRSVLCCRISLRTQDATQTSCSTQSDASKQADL
Excerpt: as §1

EP2 [3] = molecular target: T2, EP2; test: EP2 flipr; assay type: cell-based
Excerpt: as §1

EP2 [4] = molecular target: T2, EP2; test: EP2 binding (Ki)
Excerpt: as §1

EP4 [5] = molecular target: T1, EP4; test: EP4 flipr; assay type: cell-based
Excerpt: as §1

T1 sequence (P35408 whole entry): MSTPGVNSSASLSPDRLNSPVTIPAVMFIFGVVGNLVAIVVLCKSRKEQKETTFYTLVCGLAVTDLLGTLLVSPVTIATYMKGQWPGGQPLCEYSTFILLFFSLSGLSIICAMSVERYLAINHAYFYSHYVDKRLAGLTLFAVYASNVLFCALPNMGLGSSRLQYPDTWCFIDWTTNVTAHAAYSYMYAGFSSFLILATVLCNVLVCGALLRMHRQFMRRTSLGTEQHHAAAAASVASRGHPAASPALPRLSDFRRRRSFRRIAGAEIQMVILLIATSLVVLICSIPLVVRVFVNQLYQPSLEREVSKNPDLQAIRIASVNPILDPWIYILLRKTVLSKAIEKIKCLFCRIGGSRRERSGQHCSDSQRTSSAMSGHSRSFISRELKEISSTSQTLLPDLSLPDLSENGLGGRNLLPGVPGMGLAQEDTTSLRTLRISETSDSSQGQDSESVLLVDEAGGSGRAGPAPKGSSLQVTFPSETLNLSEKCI

CCCCCC(O)c1ccc(N2CC[C@@H](Cl)[C@@H]2COCc2ccc(C(=O)O)s2)cc1 (stereo partly drawn) [5-((((2S,3R)-3-chloro-1-(4-(1-hydroxyhexyl)phenyl)pyrrolidin-2-yl)methoxy)methyl)thiophene-2-carboxylic acid]
Ki (EP4 [1]): > 10000 nM
EC50 (EP2 [2]): 339 nM
EC50 (EP2 [3]): 2180 nM
Ki (EP2 [4]): 1840 nM

CCCC/C=C/c1ccc(N2CC[C@@H](Cl)[C@@H]2COCc2ccc(C(=O)O)s2)cc1 [5-((((2S,3R)-3-chloro-1-(4-((E)-hex-1-enyl)phenyl)pyrrolidin-2-yl)methoxy)methyl)thiophene-2-carboxylic acid]
Ki (EP4 [1]): 1490 nM
EC50 (EP2 [2]): 327 nM
EC50 (EP2 [3]): 8420 nM
Ki (EP2 [4]): 3010 nM
EC50 (EP4 [5]): > 10000 nM

CCCCCC(=O)c1ccc(N2CC[C@@H](Cl)[C@@H]2COCc2ccc(C(=O)O)s2)cc1 [5-((((2S,3R)-3-chloro-1-(4-hexanoylphenyl)pyrrolidin-2-yl)methoxy)methyl)thiophene-2-carboxylic acid]
Ki (EP4 [1]): 1020 nM
EC50 (EP2 [2]): 17 nM
EC50 (EP2 [3]): 3810 nM
Ki (EP2 [4]): 85 nM
EC50 (EP4 [5]): > 10000 nM
